Laboratory results taken from patent US10441648B2, “Mycobacterium antigenic composition” (priority 2010, dated 2019).
Where two headings read alike, the source gives them in different places.

Experiments:
[1] = Conductivity determination (Malvern Zetasizer Nano); format: physicochemical
Protocol: A range of standards having sodium chloride concentrations of 0, 75, 100, 150, 250 and 300 mM were prepared from a stock solution of 1500 mM sodium chloride by dilution in water for injection.
Immunogenic compositions were prepared using M72 with two N-terminal His residues according to the procedures provided in Example 8. To investigate the contribution from the antigen itself and any residual materials in the purified bulk, placebo lyophilisation cakes were also prepared by excluding the antigen component.
Using a Malvern Zetasizer Nano and 1.5 ml of each sample in folded capillary cells, a voltage of 30 to 150 V (determined automatically by the instrument) was applied and the conductivity determined.

[2] = system: chicken Red Blood cells (RBC); experiment: QS21 lytic activity, haemolysis assay (limit test); format: cell-based
Protocol: QS21 is known to lyse red blood cells (RBC).
QS21 lytic activity was measured by a haemolysis assay using chicken Red Blood cells (RBC). RBC were centrifuged at 550 g at 4° C. Supernatant was discarded. The pellet was carefully resuspended in PBS buffer to reach the initial volume and the same operation was repeated until supernatant was no longer red (generally 3 times). The pellet was stored at 4° C. for 3 to 4 days maximum if not used directly (and washed again the day it is used) or was diluted around 10 times in buffer if used the same day.
A QS21 dose range curve was prepared in ASA buffer (in salt or in sorbitol buffer following the ASA sample tested) extemporaneously and the adjuvant samples (containing a 50 ug or 90 ug equivalent of QS21 meaning the equivalent of 500 ul or 900 ul ASA) were prepared. Final volume was adjusted to 900 ul in standards and samples with adequate buffer (containing or not sorbitol as a function of the buffer of the sample tested). Due to its opalescence, ASA interferes with optical density (OD). ASA “blanks” were thus prepared and their OD was subtracted from the OD of ASA tested samples. Those blanks corresponded to the same ASA volume as the volume tested in samples, but adjusted to 1 ml with buffer. No RBC were added to these blanks. Standards and samples were then incubated with RBC (100 ul of diluted RBC added to 900 ul of standards and samples) for 30 minutes at room temperature (RT). Samples were then centrifuged 5 minutes at 900 g. Optical density at 540 nm was measured after centrifugation.
Determination of lytic activity was carried out by a limit test.
1. Limit of detection (LOD) was defined as the lowest concentration of QS21 leading to an OD: • Higher than the base level (OD>0.1) • Around three times higher than OD's buffer (the “0 ug” QS21) • In the ascendant part of the curve • Determined for each test.
2. QS21 lytic activity was held to be positive in the adjuvant samples if the OD for the adjuvant sample was greater than the ODLOD. […]

[3] = DLS antigen size of M72 at varied pH and NaCl (salting out); format: physicochemical
Protocol: Purified bulk antigen (M72 with two N-terminal His residues, SEQ ID No: 3, as prepared in Example 8) was diluted to a concentration of 100 ug/ml in three different buffers (10 mM phosphate buffer at pH 6.1, 20 mM Tris buffer at pH 7.5 and 20 mM Tris buffer at pH 8.5) containing final sodium chloride concentrations of 0, 50, 150, 300 and 450 mM.
Samples were analysed immediately (TO), stored overnight at 4° C. before analysis (T0 O/N) or stored at 25° C. for 24 hours before analysis (T24 h 25° C.).
DLS was performed using a Malvern Zetasizer Nano ZS from Malvern Instruments (UK). The instrument was operated using a laser wavelength of 633 nm and power of 4 mW. Scattered light was detected at 173° at a temperature of 22° C. The Z-average diameter (Zav) and polydispersity index (pi) are calculated by the instrument software.

[4] = DLS and nephelometry of Mtb72f at varied pH and NaCl; format: physicochemical; details: pH 6.1, 7.5, 8.5; 0, 150, 450 mM sodium chloride; 24 hours at 4° C. or 25° C.
[5] = pH 6.1, even in the absence of sodium chloride
[6] = pH 7.5 or 8.5, over 24 hours at 25° C., particularly 0 or 50 mM sodium chloride
[7] = pH 7.5 or 8.5, sodium chloride increased to 150 mM or greater

Molecule: [Cl-].[Na+] [sodium chloride]
- Conductivity ([1]; sodium chloride standard solution 75 mM in water for injection): 8.2 mS/cm
- Conductivity ([1]; sodium chloride standard solution 100 mM): 10.7 mS/cm
- Conductivity ([1]; sodium chloride standard solution 150 mM): 15.6 mS/cm
- Conductivity ([1]; sodium chloride standard solution 250 mM): 23.9 mS/cm
- Conductivity ([1]; sodium chloride standard solution 300 mM): 30.0 mS/cm

Molecule: QS21
- OD ([2]; 0.5 ug QS21, 150 mM sodium chloride buffer, optical density at 540 nm, 30 minutes RT with RBC): 0.052
- OD ([2]; 0.6 ug QS21, 150 mM sodium chloride buffer, 540 nm): 0.073
- OD ([2]; 0.7 ug QS21, 150 mM sodium chloride buffer, 540 nm): 0.091
- OD ([2]; 0.8 ug QS21, 150 mM sodium chloride buffer, 540 nm): 0.096
- OD ([2]; 0.9 ug QS21 (limit of detection), 150 mM sodium chloride buffer, 540 nm): 0.12
- OD ([2]; 1 ug QS21, 150 mM sodium chloride buffer, 540 nm): 0.195
- OD ([2]; 1.1 ug QS21, 150 mM sodium chloride buffer, 540 nm): 0.212
- OD ([2]; 1.2 ug QS21, 150 mM sodium chloride buffer, 540 nm): 0.348
- OD ([2]; 1.3 ug QS21, 150 mM sodium chloride buffer, 540 nm): 0.479
- OD ([2]; 1.4 ug QS21, 150 mM sodium chloride buffer, 540 nm): 0.612
- OD ([2]; 1.5 ug QS21, 150 mM sodium chloride buffer, 540 nm): 0.669
- OD ([2]; 2 ug QS21, 150 mM sodium chloride buffer, 540 nm): 1.139
- OD ([2]; 2.5 ug QS21, 150 mM sodium chloride buffer, 540 nm): 1.294
- OD ([2]; 3 ug QS21, 150 mM sodium chloride buffer, 540 nm): 1.391
- OD ([2]; 5 ug QS21, 150 mM sodium chloride buffer, 540 nm): 1.416

B1: M72: purified bulk antigen, M72 with two N-terminal His residues, SEQ ID No: 3 (protein)
chain: MHHTAASDNFQLSQGGQGFAIPIGQAMAIAGQIRSGGGSPTVHIGPTAFLGLGVVDNNGNGARVQRVVGSAPAASLGISTGDVITAVDGAPINSATAMADALNGHHPGDVISVTWQTKSGGTRTGNVTLAEGPPAEFMVDFGALPPEINSARMYAGPGSASLVAAAQMWDSVASDLFSAASAFQSVVWGLTVGSWIGSSAGLMVAAASPYVAWMSVTAGQAELTAAQVRVAAAAYETAYGLTVPPPVIAENRAELMILIATNLLGQNTPAIAVNEAEYGEMWAQDAAAMFGYAAATATATATLLPFEEAPEMTSAGGLLEQAAAVEEASDTAAANQLMNNVPQALQQLAQPTQGTTPSSKLGGLWKTVSPHRSPISNMVSMANNHMSMTNSGVSMTNTLSSMLKGFAPAAAAQAVQTAAQNGVRAMSSLGSSLGSSGLGGGVAANLGRAASVGSLSVPQAWAAANQAVTPAARALPLTSLTSAAERGPGQMLGGLPVGQMGARAGGGLSGVLRVPPRPYVMPHSPAAGDIAPPALSQDRFADFPALPLDPSAMVAQVGPQVVNINTKLGYNNAVGAGTGIVIDPNGVVLTNNHVIAGATDINAFSVGSGQTYGVDVVGYDRTQDVAVLQLRGAGGLPSAAIGGGVAVGEPVVAMGNSGGQGGTPRAVPGRVVALGQTVQASDSLTGAEETLNGLIQFDAAIQPGDAGGPVVNGLGQVVGMNTAAS
modifications: M72 fusion with 2 additional his residues
- stability of antigenicity [5]: not stable
- stability of antigenicity [6]: relatively stable
- change in antigenicity [7]: reduction
- antigen size (DLS) ([3]; pH 6.1, 0 mM sodium chloride, T0): 35 nm
- antigen size (DLS) ([3]; pH 6.1, 50 mM sodium chloride, T0): 58 nm
- antigen size (DLS) ([3]; pH 6.1, 50 mM sodium chloride, after 24 hours at 25° C.): 79 nm
- stability of antigen size [3, 5]: not stable
- stability of antigen size [3, 6]: relatively stable
- change in antigen size [3, 7]: clear increase

B2: Mtb72f: purified bulk antigen, Mtb72f with 6 his residues, SEQ ID No: 7 (protein)
chain: MHHHHHHTAASDNFQLSQGGQGFAIPIGQAMAIAGQIRSGGGSPTVHIGPTAFLGLGVVDNNGNGARVQRVVGSAPAASLGISTGDVITAVDGAPINSATAMADALNGHHPGDVISVTWQTKSGGTRTGNVTLAEGPPAEFMVDFGALPPEINSARMYAGPGSASLVAAAQMWDSVASDLFSAASAFQSVVWGLTVGSWIGSSAGLMVAAASPYVAWMSVTAGQAELTAAQVRVAAAAYETAYGLTVPPPVIAENRAELMILIATNLLGQNTPAIAVNEAEYGEMWAQDAAAMFGYAAATATATATLLPFEEAPEMTSAGGLLEQAAAVEEASDTAAANQLMNNVPQALQQLAQPTQGTTPSSKLGGLWKTVSPHRSPISNMVSMANNHMSMTNSGVSMTNTLSSMLKGFAPAAAAQAVQTAAQNGVRAMSSLGSSLGSSGLGGGVAANLGRAASVGSLSVPQAWAAANQAVTPAARALPLTSLTSAAERGPGQMLGGLPVGQMGARAGGGLSGVLRVPPRPYVMPHSPAAGDIAPPALSQDRFADFPALPLDPSAMVAQVGPQVVNINTKLGYNNAVGAGTGIVIDPNGVVLTNNHVIAGATDINAFSVGSGQTYGVDVVGYDRTQDVAVLQLRGAGGLPSAAIGGGVAVGEPVVAMGNSGGQGGTPRAVPGRVVALGQTVQASDSLTGAEETLNGLIQFDAAIQPGDSGGPVVNGLGQVVGMNTAAS
modifications: 6 His tag; Mtb72f fusion with 6 additional his residues
- sensitivity of size (DLS and nephelometry) to salt and pH [4]: sensitive to salt concentration and pH
